Patent US6432921B1, “Thrombin inhibitors” (Akzo Nobel N.V., priority 1995, dated 2002)

Target: T1, Human thrombin (Homo sapiens, UniProt P00734)
T1 construct: purchased Centraal Laboratorium voor Bloedtransfusie, Amsterdam, The Netherlands
Assay: Anti-thrombin assay: rate of hydrolysis of chromogenic substrate S-2238 by thrombin
Format: biochemical
Settings: TNP buffer pH 7.4, 37° C., substrate S-2238, absorbance at 405 nm; concentration causing 50% inhibition of the maximum absorbance of the blank
Method: Thrombin (Factor IIa) is a factor in the coagulation cascade.
The anti-thrombin activity of compounds of the present invention was assessed by measuring spectrophotometrically the rate of hydrolysis of the chromogenic substrate s-2238 exterted by thrombin. This assay for anti-thrombin activity in a buffer system was used to assess the IC50-value of a test compound.
Test medium: Tromethamine-NaCl-polyethylene glycol 6000 (TNP) buffer. Reference compound: I2581 (Kabi) Vehicle:TNP buffer. Solubilisation can be assisted with dimethylsulphoxide, methanol, ethanol, acetonitrile or tert.-butyl alcohol which are without adverse effects in concentrations up to 2.5% in the final reaction mixture.
Technique Reagents*: 1. Tromethamine-NaCl (TN) buffer. Composition of the buffer: Tromethamine(Tris) 6.057 g (50 mmol), NaCl 5.844 g (100 mmol), water to 1 l. The pH of the solution is adjusted to 7.4 at 37° C. with HCl (10 mmol·l^−1). 2. TNP buffer: Polyethylene glycol 6000 is dissolved in TN buffer to give a concentration of 3 g·l^−1. 3. S-2238 solution: One vial S-2238 (25 mg; Kabi Diagnostica, Sweden) is dissolved in 20 ml TN buffer to give a concentration of 1.25 mg·ml^−1 (2 mmol·l^−1). 4. Thrombin solution: Human thrombin (16 000 nKat·vial^−1; Centraal Laboratorium voor Bloedtransfusie, Amsterdam, The Netherlands) is dissolved in TNP buffer to give a stock solution of 835 nKat·ml^−1. Immediately before use this solution is diluted with TNP buffer to give a concentration of 3.34 nKat·ml^−1.
* All ingredients used are of analytical grade
For aqueous solutions ultrapure water (Milli-Q quality) is used.
Preparation of Test and Reference Compound Solutions
The test and reference compounds are dissolved in Milli-Q water to give stock concentrations of 10^−2 mol·l^−1. Each concentration is stepwise diluted with the vehicle to give concentrations of 10^−3, 10^−4 and 10^−5 mol·l^−1. […]
At room temperature 0.075 ml and 0.025 ml test compound or reference compound solutions or vehicle are alternately pipetted into the wells of a microtiter plate and these solutions are diluted with 0.115 ml and 0.0165 ml TNP buffer, respectively. […] Starting after 1 min of incubation, the absorbance of each sample at 405 nm is measured every 2 min. for a period of 90 min. using a kinetic microtiter plate reader (Twinreader plus, Flow Laboratories).
All data are collected in an IBM personal computer using LOTUS-MEASURE. For each compound concentration (expressed in mol·l^−1 reaction mixture) and for the blank the absorbance is plotted versus the reaction time in min.
Evaluation of responses: For each final concentration the maximum absorbance was calculated from the assay plot. […]

| SMILES | IC50 [µM] |
| --- | --- |
| NCCCCC(NC(=O)CN(C(=O)C(N)Cc1ccccc1)C1CCCC1)C(=O)c1nccs1 [2(e), H—D-Phe-(N-cyclopentyl)-Gly-Lys-(2-thiazolyl)] | 4.5 |
| NCCCCC(NC(=O)CN(C(=O)CCc1ccccc1)C1CCCC1)C(=O)C(=O)O (stereo not shown) [4(b), 3-Phenylpropionyl-(N-cyclopentyl)-Gly-LysΨ[COCO]—OH] | 4.34 |
| NCCCC[C@H](NC(=O)[C@@H]1CCCN1C(=O)[C@@H](Cc1ccc(F)cc1)NCC(=O)O)C(=O)c1nccs1 [Example 39, HOOC—CH2—D-p-F-Phe-Pro-Lys-(2-thiazolyl)] | 19 |
| NCCCCC(NC(=O)CN1CCCCC(NS(=O)(=O)Cc2ccccc2)C1=O)C(=O)C(=O)O (stereo not shown) [Example 41, BzlSO2-norLeu(cyclo)Gly-LysΨ[COCO]—OH] | 0.135 |
